# Laboratory results published in patent US20050208151A1, “Treatment of rheumatoid arthritis with FLIP antagonists” (Entelos, Inc., priority 2003, published 2005).
# Columns and labels:
# [1] = tested on: MNC and macrophages from RA synovial fluid; assay: uptake of FITC-labeled oligonucleotides by flow cytometry; type: cell-based, human; details: 10-20 μM, 24h, 70% ETOH fixed cells
# Protocol: MNC and macrophages from RA synovial fluid are incubated for 24h with FITC-labeled antisense phosphorothioate oligodeoxynucleotides (10-20 μM) comprising the FLIP initiation codon (5′-[…]-3′) (SEQ ID NO: 2). A nonsense oligonucleotides is used as negative control (for example; 5′-TGGATCCGACATGTCAGA-3′) (SEQ ID NO: 3). Uptake of the FITC-labeled oligonucleotides are measured by flow cytometry on 70% ETOH fixed cells. A 80-90% transfection efficiency is expected. A general caspase inhibitor (e.g., 20 μM zVAD.fmk) is used as negative control in all apoptosis assays. As a positive control of macrophage apoptosis, the cells are treated with 50 μM of the phosphatidylinositol 3-kinase inhibitor LY294002 for 24 h.
# [2] = tested on: RA patients' synovial macrophages; details: Fas agonist with vs without BIS, which blocked FLIP expression; cited from earlier work
# [3] = tested on: rheumatoid arthritis; details: methotrexate treatment; level after 6 months therapy; cited from earlier work
molecule,measurement,setting,value
"5′-GACTTCAGCAGACATCCTAC-3′ (DNA, all phosphorothioate, methylation of C not given here; FITC label; listed as Homo sapiens) [FITC-labeled antisense phosphorothioate oligodeoxynucleotides comprising the FLIP initiation codon]",transfection efficiency (uptake of FITC-labeled oligonucleotides),[1],80-90%
CN(C)CCCn1cc(C2=C(c3c[nH]c4ccccc34)C(=O)NC2=O)c2ccccc21 [bisinodylmaleimide I],increase in macrophage apoptosis,[2],~9 fold
"CN(Cc1cnc2nc(N)nc(N)c2n1)c1ccc(C(=O)N[C@@H](CCC(=O)O)C(=O)O)cc1 [Methotrexate, methotrexate]",decrease in rate of cartilage degradation,[3],approximately 17%
same,decrease in synovial cell density,[3],approximately 33%
